According to US12077503B2, “Substituted cyclic amides and their use as herbicides” (FMC CORPORATION, priority 2015, dated 2024):

Assays:
Format in all cases: in vivo
[1] = tested on: sedge, umbrella (small-flower umbrella sedge, Cyperus difformis); assay: Test B flooded paddy test; settings: Cyperus difformis, 250 g ai/ha, Flood; 0 to 100 scale where 0 is no effect and 100 is complete control; read-out: Sedge, Umbrella plant response rating
Outline: (§1)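 Compound goes directly into floodwater once pots are flooded 3 cm above soil, targeting plants at two leaves; the water depth is then held for the test duration. Plants sit 13–15 d in a greenhouse and are rated visually, 100 denoting complete control.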

rice (Oryra sativa) = assay: Test B flooded paddy test; settings: Oryza sativa, 250 g ai/ha, Flood; 0 to 100 scale where 0 is no effect and 100 is complete control; read-out: Rice plant response rating
Outline: as §1

[2] = tested on: barnyardgrass (Echinochloa crus-galli); assay: Test B flooded paddy test; settings: Echinochloa crus-galli, 250 g ai/ha, Flood; 0 to 100 scale where 0 is no effect and 100 is complete control; read-out: Barnyardgrass plant response rating
Outline: as §1

[3] = tested on: ducksalad (Heteranthera limosa); assay: Test B flooded paddy test; settings: Heteranthera limosa, 250 g ai/ha, Flood; 0 to 100 scale where 0 is no effect and 100 is complete control; read-out: Ducksalad plant response rating
Outline: as §1

[4] = tested on: ryegrass, Italian (Italian ryegrass, Lolium multiflorum); assay: Test A preemergence; settings: Lolium multiflorum, pre-emergence, 240 h, 0 to 100 scale where 0 is no effect and 100 is complete control, read-out: Ryegrass, Italian plant response rating; for pest or weed control at 31 g/ha: 31 g ai/ha, Preemergence; for pest or weed control at 125 g/ha: 125 g ai/ha, preemergence, visual injury rating, approximately 10 d
Outline: (§2)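 Preemergence soil spray on seeded pots or post-emergence spray on 1–2 leaf plants, in loam–sand blend. Greenhouse ~10 d. Visual rating 0–100 against untreated plants.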

Kochia (Kochia scoparia) [5] = assay: Test A preemergence; settings: Bassia scoparia, pre-emergence, 240 h, 0 to 100 scale where 0 is no effect and 100 is complete control, read-out: Kochia plant response rating; for pest or weed control at 31 g/ha: 31 g ai/ha, Preemergence; for pest or weed control at 125 g/ha: 125 g ai/ha, preemergence, visual injury rating, approximately 10 d
Outline: as §2

[6] = tested on: giant foxtail (Setaria faberii); assay: Test A preemergence; settings: Setaria faberi, pre-emergence, 240 h, 0 to 100 scale where 0 is no effect and 100 is complete control, read-out: Foxtail, Giant plant response rating; for pest or weed control at 31 g/ha: 31 g ai/ha, Preemergence; for pest or weed control at 125 g/ha: 125 g ai/ha, preemergence, visual injury rating, approximately 10 d
Outline: as §2

[7] = tested on: ragweed (common ragweed, Ambrosia elatior); assay: Test A preemergence; settings: Ambrosia artemisiifolia, pre-emergence, 240 h, 0 to 100 scale where 0 is no effect and 100 is complete control, read-out: Ragweed plant response rating; for pest or weed control at 31 g/ha: 31 g ai/ha, Preemergence; for pest or weed control at 125 g/ha: 125 g ai/ha, preemergence, visual injury rating, approximately 10 d
Outline: as §2

[8] = tested on: barnyardgrass (Echinochloa crus-galli); assay: Test A preemergence; settings: Echinochloa crus-galli, pre-emergence, 240 h, 0 to 100 scale where 0 is no effect and 100 is complete control, read-out: Barnyardgrass plant response rating; for pest or weed control at 31 g/ha: 31 g ai/ha, Preemergence; for pest or weed control at 125 g/ha: 125 g ai/ha, preemergence, visual injury rating, approximately 10 d
Outline: as §2

[9] = tested on: pigweed (Amaranthus retroflexus); assay: Test A preemergence; settings: Amaranthus retroflexus, pre-emergence, 240 h, 0 to 100 scale where 0 is no effect and 100 is complete control, read-out: Pigweed plant response rating; for pest or weed control at 31 g/ha: 31 g ai/ha, Preemergence; for pest or weed control at 125 g/ha: 125 g ai/ha, preemergence, visual injury rating, approximately 10 d
[10] = tested on: ryegrass, Italian (Italian ryegrass, Lolium multiflorum); assay: Test A postemergence; settings: Lolium multiflorum, post-emergence, 240 h, Postemergence, read-out: Ryegrass, Italian plant response rating (0 to 100 scale); for pest or weed control at 125 g/ha: 125 g ai/ha, visual rating about 10 d after treatment; for pest or weed control at 31 g/ha: 31 g ai/ha, 0 is no effect, 100 is complete control
Outline: as §2

[11] = tested on: Galium (catchweed bedstraw, Galium aparine); assay: Test A postemergence; settings: Galium, post-emergence, 240 h, Postemergence, read-out: Galium plant response rating (0 to 100 scale); for pest or weed control at 125 g/ha: 125 g ai/ha, visual rating about 10 d after treatment; for pest or weed control at 31 g/ha: 31 g ai/ha, 0 is no effect, 100 is complete control
Outline: as §2

Kochia (Kochia scoparia) [12] = assay: Test A postemergence; settings: Bassia scoparia, post-emergence, 240 h, Postemergence, read-out: Kochia plant response rating (0 to 100 scale); for pest or weed control at 125 g/ha: 125 g ai/ha, visual rating about 10 d after treatment; for pest or weed control at 31 g/ha: 31 g ai/ha, 0 is no effect, 100 is complete control
Outline: as §2

corn (Zea mays) = assay: Test A postemergence; settings: Zea mays, post-emergence, 240 h, Postemergence, read-out: Corn plant response rating (0 to 100 scale); for plant injury at 125 g/ha: 125 g ai/ha, visual rating about 10 d after treatment; for plant injury at 31 g/ha: 31 g ai/ha, 0 is no effect, 100 is complete control
Outline: as §2

[13] = tested on: giant foxtail (Setaria faberii); assay: Test A postemergence; settings: Setaria faberi, post-emergence, 240 h, Postemergence, read-out: Foxtail, Giant plant response rating (0 to 100 scale); for pest or weed control at 125 g/ha: 125 g ai/ha, visual rating about 10 d after treatment; for pest or weed control at 31 g/ha: 31 g ai/ha, 0 is no effect, 100 is complete control
Outline: as §2

[14] = tested on: wheat (Triticum aestivum); assay: Test A postemergence; settings: Triticum aestivum, post-emergence, 240 h, Postemergence, read-out: Wheat plant response rating (0 to 100 scale); for plant injury at 125 g/ha: 125 g ai/ha, visual rating about 10 d after treatment; for plant injury at 31 g/ha: 31 g ai/ha, 0 is no effect, 100 is complete control
Outline: as §2

[15] = tested on: ragweed (common ragweed, Ambrosia elatior); assay: Test A postemergence; settings: Ambrosia artemisiifolia, post-emergence, 240 h, Postemergence, read-out: Ragweed plant response rating (0 to 100 scale); for pest or weed control at 125 g/ha: 125 g ai/ha, visual rating about 10 d after treatment; for pest or weed control at 31 g/ha: 31 g ai/ha, 0 is no effect, 100 is complete control
Outline: as §2

[16] = tested on: barnyardgrass (Echinochloa crus-galli); assay: Test A postemergence; settings: Echinochloa crus-galli, post-emergence, 240 h, Postemergence; for pest or weed control at 125 g/ha: 125 g ai/ha, visual rating about 10 d after treatment, read-out: Barnyardgrass plant response rating (0 to 100 scale, 0 no effect, 100 complete control); for pest or weed control at 31 g/ha: 31 g ai/ha, 0 is no effect, 100 is complete control, read-out: Barnyardgrass plant response rating (0 to 100 scale)
Outline: as §2

[17] = tested on: blackgrass (Alopecurus myosuroides); assay: Test A postemergence; settings: Alopecurus myosuroides, post-emergence, 240 h, Postemergence, read-out: Blackgrass plant response rating (0 to 100 scale); for pest or weed control at 125 g/ha: 125 g ai/ha, visual rating about 10 d after treatment; for pest or weed control at 31 g/ha: 31 g ai/ha, 0 is no effect, 100 is complete control
Outline: as §2

[18] = tested on: pigweed (Amaranthus retroflexus); assay: Test A postemergence; settings: Amaranthus retroflexus, post-emergence, 240 h, Postemergence, read-out: Pigweed plant response rating (0 to 100 scale); for pest or weed control at 125 g/ha: 125 g ai/ha, visual rating about 10 d after treatment; for pest or weed control at 31 g/ha: 31 g ai/ha, 0 is no effect, 100 is complete control
Outline: as §2

| SMILES | pest or weed control at 250 g/ha [1] | pest or weed control at 250 g/ha (rice (Oryra sativa)) | pest or weed control at 250 g/ha [2] | pest or weed control at 250 g/ha [3] | pest or weed control at 31 g/ha [4] | pest or weed control at 125 g/ha [4] | pest or weed control at 31 g/ha (Kochia (Kochia scoparia) [5]) | pest or weed control at 125 g/ha (Kochia (Kochia scoparia) [5]) | pest or weed control at 31 g/ha [6] | pest or weed control at 125 g/ha [6] | pest or weed control at 31 g/ha [7] | pest or weed control at 125 g/ha [7] | pest or weed control at 31 g/ha [8] | pest or weed control at 125 g/ha [8] | pest or weed control at 31 g/ha [9] | pest or weed control at 125 g/ha [9] | pest or weed control at 125 g/ha [10] | pest or weed control at 31 g/ha [10] | pest or weed control at 125 g/ha [11] | pest or weed control at 31 g/ha [11] | further results |
| --- | --- | --- | --- | --- | --- | --- | --- | --- | --- | --- | --- | --- | --- | --- | --- | --- | --- | --- | --- | --- | --- |
| CN1C[C@H](c2cccc(C#N)c2)[C@@H](C(=O)Nc2ccccc2F)C1=O [Compound 1285] | 0% | 25% | 60% | 90% | 0% | 0% | 20% | 30% | 90% | 100% | 30% | 30% | 40% | 90% | 0% | 0% | 0% | 0% | 30% | 20% | pest or weed control at 125 g/ha (Kochia (Kochia scoparia) [12]): 0%; pest or weed control at 31 g/ha (Kochia (Kochia scoparia) [12]): 0%; plant injury at 125 g/ha (corn (Zea mays)): 0%; plant injury at 31 g/ha (corn (Zea mays)): 0%; pest or weed control at 125 g/ha [13]: 70%; pest or weed control at 31 g/ha [13]: 40%; plant injury at 125 g/ha [14]: 0%; plant injury at 31 g/ha [14]: 0%; pest or weed control at 125 g/ha [15]: 0%; pest or weed control at 31 g/ha [15]: 0%; pest or weed control at 125 g/ha [16]: 80%; pest or weed control at 31 g/ha [16]: 60%; pest or weed control at 125 g/ha [17]: 0%; pest or weed control at 31 g/ha [17]: 0%; pest or weed control at 125 g/ha [18]: 20%; pest or weed control at 31 g/ha [18]: 20% |
| CN1C[C@H](c2cccc(C#N)c2)[C@@H](C(=O)Nc2ccc(F)c(F)c2F)C1=O [Compound 1287] | 0% | 15% | 75% | 80% | 0% | 40% | 20% | 70% | 100% | 100% | 0% | 0% | 90% | 100% | 0% | 40% | 0% | 0% | 40% | 30% | pest or weed control at 125 g/ha (Kochia (Kochia scoparia) [12]): 30%; pest or weed control at 31 g/ha (Kochia (Kochia scoparia) [12]): 0%; plant injury at 125 g/ha (corn (Zea mays)): 0%; plant injury at 31 g/ha (corn (Zea mays)): 0%; pest or weed control at 125 g/ha [13]: 80%; pest or weed control at 31 g/ha [13]: 70%; plant injury at 125 g/ha [14]: 0%; plant injury at 31 g/ha [14]: 0%; pest or weed control at 125 g/ha [15]: 0%; pest or weed control at 31 g/ha [15]: 0%; pest or weed control at 125 g/ha [16]: 90%; pest or weed control at 31 g/ha [16]: 80%; pest or weed control at 125 g/ha [17]: 20%; pest or weed control at 31 g/ha [17]: 0%; pest or weed control at 125 g/ha [18]: 0%; pest or weed control at 31 g/ha [18]: 0% |
